Columns and labels:
T47D = assay: Growth inhibition of human T47D cells assessed as cell growth at 0.03 uM incubated for 48 hrs by sulforhodamine B assay relative to control; assay type: functional; details: read-out: Activity
SK-OV-3 [1] = assay: Growth inhibition of human SKOV3 cells incubated for 48 hrs by sulforhodamine B assay; assay type: functional; details: SK-OV-3, 48 h; for CC50: read-out: LC50 (the source's name)
ACHN = assay: Growth inhibition of human ACHN cells assessed as cell growth at 0.3 uM incubated for 48 hrs by sulforhodamine B assay relative to control; assay type: functional; details: read-out: Activity
KM12 = assay: Growth inhibition of human KM12 cells assessed as cell growth at 0.03 uM incubated for 48 hrs by sulforhodamine B assay relative to control; assay type: functional; details: KM12, 48 h, read-out: Activity
HOP-92 [2] = assay: Growth inhibition of human HOP92 cells assessed as cell growth at 30 uM incubated for 48 hrs by sulforhodamine B assay relative to control; assay type: functional; details: HOP-92, 48 h, read-out: Activity
NCI-H522 = assay: Growth inhibition of human NCI-H522 cells incubated for 48 hrs by sulforhodamine B assay; assay type: functional; details: NCI-H522, 48 h; for CC50: read-out: LC50 (the source's name)
SF-295 = assay: Growth inhibition of human SF295 cells incubated for 48 hrs by sulforhodamine B assay; assay type: functional; details: SF-295, 48 h; for CC50: read-out: LC50 (the source's name)
A549 = assay: Growth inhibition of human A549/ATCC cells incubated for 48 hrs by sulforhodamine B assay; assay type: functional; details: A549, 48 h; for CC50: read-out: LC50 (the source's name)
SK-MEL-2 = assay: Growth inhibition of human SK-MEL-2 cells assessed as cell growth at 0.03 uM incubated for 48 hrs by sulforhodamine B assay relative to control; assay type: functional; details: SK-MEL-2, 48 h, read-out: Activity
SW-620 = assay: Growth inhibition of human SW620 cells incubated for 48 hrs by sulforhodamine B assay; assay type: functional; details: SW-620, 48 h
U-251 = assay: Growth inhibition of human U251 cells incubated for 48 hrs by sulforhodamine B assay; assay type: functional; details: U-251, 48 h; for CC50: read-out: LC50 (the source's name)
SK-OV-3 [3] = assay: Growth inhibition of human SKOV3 cells assessed as cell growth at 30 uM incubated for 48 hrs by sulforhodamine B assay relative to control; assay type: functional; details: SK-OV-3, 48 h, read-out: Activity
MCF7 = assay: Growth inhibition of human MCF7 cells incubated for 48 hrs by sulforhodamine B assay; assay type: functional; details: MCF7, 48 h; for CC50: read-out: LC50 (the source's name)
NCI/ADR-RES = assay: Growth inhibition of human NCI/ADR-RES cells incubated for 48 hrs by sulforhodamine B assay; assay type: functional; details: for CC50: read-out: LC50 (the source's name)
TK-10 = assay: Growth inhibition of human TK10 cells incubated for 48 hrs by sulforhodamine B assay; assay type: functional; details: TK-10, 48 h; for CC50: read-out: LC50 (the source's name)
K562 = assay: Growth inhibition of human K562 cells incubated for 48 hrs by sulforhodamine B assay; assay type: functional; details: K562, 48 h
NCI-H23 = assay: Growth inhibition of human NCI-H23 cells incubated for 48 hrs by sulforhodamine B assay; assay type: functional; details: NCI-H23, 48 h; for CC50: read-out: LC50 (the source's name)
CAKI-1 = assay: Growth inhibition of human Caki1 cells incubated for 48 hrs by sulforhodamine B assay; assay type: functional; details: CAKI-1, 48 h; for CC50: read-out: LC50 (the source's name)
OVCAR-5 = assay: Growth inhibition of human OVCAR5 cells incubated for 48 hrs by sulforhodamine B assay; assay type: functional; details: OVCAR-5, 48 h; for CC50: read-out: LC50 (the source's name)
HCT-116 = assay: Growth inhibition of human HCT116 cells incubated for 48 hrs by sulforhodamine B assay; assay type: functional; details: HCT-116, 48 h
NCI-H460 = assay: Growth inhibition of human NCI-H460 cells incubated for 48 hrs by sulforhodamine B assay; assay type: functional; details: NCI-H460, 48 h; for CC50: read-out: LC50 (the source's name)
UO-31 = assay: Growth inhibition of human UO31 cells assessed as cell growth at 0.3 uM incubated for 48 hrs by sulforhodamine B assay relative to control; assay type: functional; details: UO-31, 48 h, read-out: Activity
MDA-MB-231 = assay: Growth inhibition of human MDA-MB-231 cells incubated for 48 hrs by sulforhodamine B assay; assay type: functional; details: MDA-MB-231, 48 h; for CC50: read-out: LC50 (the source's name)
HOP-92 [4] = assay: Growth inhibition of human HOP92 cells incubated for 48 hrs by sulforhodamine B assay; assay type: functional; details: HOP-92, 48 h
MDA-MB-435 = assay: Growth inhibition of human MDA-MB-435 cells incubated for 48 hrs by sulforhodamine B assay; assay type: functional; details: MDA-MB-435, 48 h; for CC50: read-out: LC50 (the source's name)
SF-539 = assay: Growth inhibition of human SF539 cells incubated for 48 hrs by sulforhodamine B assay; assay type: functional; details: SF-539, 48 h; for CC50: read-out: LC50 (the source's name)
[5] = target: RAF proto-oncogene serine/threonine-protein kinase (Homo sapiens, UniProt P04049); assay: Inhibition of human c-RAF using MEK1 as substrate in presence of [33P]ATP by Hotspot assay
Chain of RAF proto-oncogene serine/threonine-protein kinase (P04049 whole entry): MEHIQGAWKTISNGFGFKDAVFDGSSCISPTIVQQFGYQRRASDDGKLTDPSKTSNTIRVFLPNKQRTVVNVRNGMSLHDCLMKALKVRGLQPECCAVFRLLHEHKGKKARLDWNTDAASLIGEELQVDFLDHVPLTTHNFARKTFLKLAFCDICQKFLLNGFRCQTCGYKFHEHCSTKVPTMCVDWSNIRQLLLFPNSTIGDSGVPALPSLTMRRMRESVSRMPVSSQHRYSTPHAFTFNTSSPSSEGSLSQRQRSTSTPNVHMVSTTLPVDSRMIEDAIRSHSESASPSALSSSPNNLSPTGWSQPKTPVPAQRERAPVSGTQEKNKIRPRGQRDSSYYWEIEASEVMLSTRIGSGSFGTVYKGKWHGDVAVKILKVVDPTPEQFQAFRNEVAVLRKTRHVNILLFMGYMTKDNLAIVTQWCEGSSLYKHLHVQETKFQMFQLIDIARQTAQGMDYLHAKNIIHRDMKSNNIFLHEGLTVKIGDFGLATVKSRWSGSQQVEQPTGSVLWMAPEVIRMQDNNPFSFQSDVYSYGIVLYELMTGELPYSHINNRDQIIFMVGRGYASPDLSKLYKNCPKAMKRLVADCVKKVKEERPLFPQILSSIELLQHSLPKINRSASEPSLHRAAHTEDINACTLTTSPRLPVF

## Cc1nc2cc(O)c(O)cc2cc1Oc1ccc(NC(=O)Nc2ccc(Cl)c(Cl)c2)cc1
T47D
  growth at 0.03 µM: 102%
SK-OV-3 [1]
  GI50: 11.7 µM
  TGI: > 32.5 µM
  CC50: > 32.5 µM
ACHN
  growth at 0.3 µM: 107%
KM12
  growth at 0.03 µM: 103%
HOP-92 [2]
  growth at 30 µM: -20%
NCI-H522
  GI50: 4.43 µM
  TGI: 12.5 µM
  CC50: > 32.5 µM
SF-295
  GI50: 11.4 µM
  TGI: > 32.5 µM
  CC50: > 32.5 µM
A549
  GI50: 8.99 µM
  TGI: 26.2 µM
  CC50: > 32.5 µM
SK-MEL-2
  growth at 0.03 µM: 113%
SW-620
  GI50: 4.9 µM
  LC50: > 32.5 µM
  TGI: > 32.5 µM
U-251
  GI50: 6.58 µM
  TGI: > 32.5 µM
  CC50: > 32.5 µM
SK-OV-3 [3]
  growth at 30 µM: 7%
MCF7
  GI50: 8.7 µM
  TGI: > 32.5 µM
  CC50: > 32.5 µM
NCI/ADR-RES
  GI50: 8.74 µM
  TGI: > 32.5 µM
  CC50: > 32.5 µM
TK-10
  GI50: 14.2 µM
  TGI: > 32.5 µM
  CC50: > 32.5 µM
K562
  GI50: 6.93 µM
  LC50 (concentration killing 50% of cells): > 32.5 µM
  TGI: 29.6 µM
NCI-H23
  GI50: 6.97 µM
  TGI: 19.6 µM
  CC50: > 32.5 µM
CAKI-1
  GI50: 4.96 µM
  TGI: 30 µM
  CC50: > 32.5 µM
OVCAR-5
  GI50: 11.6 µM
  TGI: 29.3 µM
  CC50: > 32.5 µM
HCT-116
  GI50: 2.24 µM
  LC50 (50% lethal concentration): > 32.5 µM
  TGI: 13.6 µM
NCI-H460
  GI50: 6.95 µM
  TGI: 15.8 µM
  CC50: > 32.5 µM
UO-31
  growth at 0.3 µM: 102%
MDA-MB-231
  GI50: 2.49 µM
  TGI: > 32.5 µM
  CC50: > 32.5 µM
HOP-92 [4]
  GI50: 2.85 µM
  LC50: > 32.5 µM
  TGI: 16.7 µM
MDA-MB-435
  GI50: 6.99 µM
  TGI: > 32.5 µM
  CC50: > 32.5 µM
SF-539
  GI50: 8.86 µM
  TGI: 22.7 µM
  CC50: > 32.5 µM

## COc1cc2cc(Oc3ccc(NC(=O)Nc4cccc(C(F)(F)F)c4)cc3)c(C)nc2cc1OC
SK-OV-3 [1]
  GI50: 2.06 µM
  TGI: 10.6 µM
  CC50: > 50 µM
NCI-H522
  GI50: 1.32 µM
  TGI: 4.49 µM
  CC50: 32.4 µM
SF-295
  GI50: 1.13 µM
  TGI: 3.59 µM
  CC50: 27.2 µM
A549
  GI50: 1.47 µM
  TGI: 6.49 µM
  CC50: 26.6 µM
SW-620
  GI50: 2.28 µM
  LC50: > 50 µM
  TGI: 11.1 µM
U-251
  GI50: 1.56 µM
  TGI: 5.61 µM
  CC50: 17 µM
MCF7
  GI50: 1.34 µM
  TGI: 5.43 µM
  CC50: 18.9 µM
NCI/ADR-RES
  GI50: 1.71 µM
  TGI: 7.19 µM
  CC50: 40 µM
TK-10
  GI50: 2.26 µM
  TGI: 9.93 µM
  CC50: > 50 µM
K562
  GI50: 1.73 µM
  LC50 (concentration killing 50% of cells): > 50 µM
  TGI: 14 µM
NCI-H23
  GI50: 1.7 µM
  TGI: 7.41 µM
  CC50: > 50 µM
CAKI-1
  GI50: 1.32 µM
  TGI: 4.29 µM
  CC50: 48.6 µM
OVCAR-5
  GI50: 3.02 µM
  TGI: 13 µM
  CC50: > 50 µM
HCT-116
  GI50: 1.46 µM
  LC50 (50% lethal concentration): 20.4 µM
  TGI: 5.84 µM
NCI-H460
  GI50: 1.6 µM
  TGI: 6.02 µM
  CC50: 34.9 µM
MDA-MB-231
  GI50: 1.13 µM
  TGI: 4.15 µM
  CC50: 18.6 µM
HOP-92 [4]
  GI50: 1.26 µM
  LC50: 21.2 µM
  TGI: 3.96 µM
MDA-MB-435
  GI50: 1.63 µM
  TGI: 10.1 µM
  CC50: > 50 µM
SF-539
  GI50: 2.48 µM
  TGI: 8.74 µM
  CC50: 25.4 µM
[5]
  IC50: 0.15 µM
